This is an account of results in US8278359B2, “Compositions containing amines and use thereof to treat acne or reduce the appearance of oil or pores on the skin” (Johnson & Johnson Consumer Companies, Inc., priority 2005, dated 2012).

Structures are written as SMILES.

Test [1] relates to TNF (tissue necrosis factor-alpha). The experiment in a line: PHA-stimulated peripheral blood lymphocyte cytokine release: TNF. It is filed as cell-based. As to conditions: Homo sapiens, 48 h, read-out: TNF % inh. From the text: (§1) The ability of various amines to affect the inflammatory responses was illustrated by its ability to reduce the production of cytokines by human lymphocytes stimulated with the T-cell receptor (TCR) activating agent phytohaemagglutinin (PHA) in the following assay.
(§2) Human leukocytes were collected from a healthy adult […] via leukopheresis, and adjusted to a density Of 1×10^6 cells/mL in serum free lymphocyte growth medium (ExVivo-15, Biowhittaker, Walkersville, Md.). PBLs were stimulated with 10 μg/mL PHA in the presence or absence of test samples following published methods (Hamamoto Y., et al. Exp Dermatol 2:231-235, 1993). The following compounds were evaluated N,N,N′,N′-Tetrakis(2-hydroxypropyl)ethylenediamine (THPED, available from BASF under the tradename “Quadrol” or “Neutrol”), N,N,N,N-Tetramethylethylenediamine (TEMED, available from Pfaltz & Bauer Chemicals (Waterbury, Conn.)), and Diethylenetriamine (available from Sigma-Aldrich) Following a 48 hour incubation at 37° C. with 5% CO2, the supernatant was removed and evaluated for cytokine content using commercially available multiplex cytokine detection kit.

Test [2] concerns IFN (interferon-gamma). Nature of the test: PHA-stimulated peripheral blood lymphocyte cytokine release: IFN. Format: cell-based. As to conditions: Homo sapiens, 48 h, read-out: IFN % inh.
Excerpt: as §1, §2

For test [3], the system named is GM-CSF (granulocyte macrophage stimulating factor). The experiment in a line: PHA-stimulated peripheral blood lymphocyte cytokine release: GM-CSF. It is filed as cell-based. As to conditions: Homo sapiens, 48 h, read-out: GMCSF % inh.
Excerpt: as §1, §2

The subject of test [4] is B16 cells. Nature of the test: Induction of pigmentation in vitro, DOPA staining. Format: cell-based, murine. As to conditions: pH 7.2, 48 hours. As to the method: THPED was tested for its effect on pigmentation, using melanocytes, DOPA staining and computerized image analysis. THPED was obtained from BASF (Florham Park, N.J.). THPED was dissolved in culture medium and pH was adjusted to neutral (pH 7.2). THPED was assayed at concentrations ranging from 0.05-0.01%.
B16 cells (a murine melanoma cell line) were obtained from American Type Culture Collection (Manassas, Va.). Cells were cultured in Dulbecco's Modified Eagle Medium (DMEM) containing 10% fetal bovine serum (FBS), 4.5 mg/ml glucose, 2 mM L-glutamine, sodium pyruvate, without phenol red (Invitrogen, Carlsbad, Calif.). B16 cells were plated on 12 well tissue culture plates (Corning Costar, San Diego, Calif.), at 40,000 cells per well in the above culture media. Cells were allowed to grow overnight and then treated with various concentrations of THPED at pH 7.2 for total 48 hours. Fresh media containing the experimental treatments were changed once daily.
At the end of the treatment, the cells were washed for 5 minutes, twice, in phosphate-buffered saline (PBS, from Life Technologies, Gaithersburg, Md.), then briefly fixed in 10% buffered formalin (from Sigma St. Louis, Mo.) for 10 minutes, washed three times with PBS and stained with 0.1% L-3,4-Dihydroxyphenylalanine (DOPA, from Sigma, St. Louis, Mo.) in PBS for 2-3 hours at 37° C., followed by three PBS washes. DOPA is a substrate for tyrosinase; therefore an increase in staining represents increased tyrosinase activity and pigment production. Images of DOPA-stained cells were taken using a Leica DMIL microscope (Bannockburn, Ill.) and an OPTRONICS DEI-750 digital camera (Goleta, Calif.). All images were obtained and analyzed with Image Pro Plus 4.0 software (Media Cybernetics, Silver Spring, Md.).
The pigment change was evaluated using the scale defined in Table XII.

In test [5] the test system is tyrosinase. Nature of the test: Tyrosinase activity in lysates of treated B16 cells (DOPA, absorbance 490 nm). It is filed as cell-based, murine. The settings on record: pH 7.2, B16 cells 48 hours, activity at 3-hours, normalized for total protein. As to the method: THPED was also tested for its ability to induce tyrosinase activity in B16 cells by spectroscopic measuring of the final product, melanin. B16 cells were treated with THPED at different concentrations at pH 7.2 for 48 hours and cells were then lysed in 250 μl of PBS containing 1% Triton X-100 (Sigma, St. Louis, Mo.). The lysates were collected and centrifuged at 14,000 rpm for 5 minutes at 4° C. to pellet any insoluble material. Lysates (100 μl) were transferred to a 96 well assay plate (Corning Costar, San Diego, Calif.) and mixed with 100 μl of 0.1% (w/v) DOPA in PBS. The absorbance at 490 nm was then monitored from 0 to 12 hours using a VersaMax Plate Spectrophotometer (Molecular Devices, Sunnyvale, Calif.) and SoftMax Pro analytical software (Molecular Devices, Sunnyvale, Calif.). The tyrosinase activities were normalized for total protein using the BioRad Dc Protein Assay (Bio Rad, Hercules, Calif.).

In test [6] the test system is tyrosinase. The experiment in a line: Tyrosinase protein levels in B16 cells (Western blot, normalized to β-Actin). Format: cell-based, murine. As to conditions: pH 7.2, 48 hours, PBS treated control = 1. As for the experimental part:
THPED was also tested for its ability to induce tyrosinase protein levels in B16 cells. B16 cells were treated with THPED at different concentrations at pH 7.2 for 48 hours and cells were then lysed in 250 μl of PBS containing 1% Triton X-100. B16 cell lysates containing 3.7 μg of protein (for tyrosinase protein analysis) and 1.2 μg of protein (for β-Actin protein analysis) were electrophoresed on 4-20% Tris-Glycine SDS PAGE minigels (Invitrogen, Carlsbad, Calif.), transferred onto PVDF membrane (Bio Rad, Hercules, Calif.), and probed with antibodies for Tyrosinase (1:200 in PBS+0.2% Tween 20+5% BSA, obtained from Santa Cruz Biotechnology, Inc., Santa Cruz, Calif.) and β-Actin (1:2000 in PBS+0.2% Tween 20+5% BSA, obtained from Sigma, St. Louis, Mo.). Protein expression of tyrosinase and β-Actin were analyzed using ECL reagent and Hyperfilm ECL obtained from Amersham (Piscataway, N.J.). The film was developed using a Konica SRX-101A Processor (East Orange, N.J.).
Tyrosinase protein level in untreated B16 cells was normalized to 1.
(In general: In western blotting, separated proteins are transferred to a membrane and probed.)

Test [7] deals with macrophages. The settings on record: Bhide M V et al., Immunopharmacol. 1985; cited from earlier work.

As for `CC(O)CN(CCN(CC(C)O)CC(C)O)CC(C)O` (stereo not shown) [THPED, N,N,N′,N′-Tetrakis(2-hydroxypropyl)ethylenediamine], the inhibition at 10 µg/mL in test [1] was 13.3%; in test [2] it was 18.1%; in test [3] it was 10.3%. Further, the values for the inhibition at 100 µg/mL in test [1], in test [2] and in test [3] were 46.1%, 37.9% and 15.8%, respectively. In addition, the Pigmentation score in test [4] (0.01% (w/v)) came to 1; in test [4] (0.025% (w/v)), 2; in test [4] (0.05% (w/v)) it was 4. Besides, the “% tyrosinase activity relative to untreated control” value came out at 104.15% in test [5] (0.01%), 167.39% in test [5] (0.025%) and 201.90% in test [5] (0.05%). Also, the “Relative increase in tyrosinase protein” value in test [6] (0.01%) is 3 fold; in test [6] (0.025%), 25 fold; in test [6] (0.05%), 36 fold. Moreover, the “effect on macrophages in culture” value in test [7] is on record as “increased macrophage activation”.
